Laboratory results as given in the Kinase Knowledgebase extract (Sharma et al. 2016).
pIC50: −log10 of the molar value.

Target: PIK3CD (Human) (UniProt O00329)
Test: Assessment of PIK3CD Kinase Activity

Sequence of PIK3CD (Human) (O00329 whole entry, looked up): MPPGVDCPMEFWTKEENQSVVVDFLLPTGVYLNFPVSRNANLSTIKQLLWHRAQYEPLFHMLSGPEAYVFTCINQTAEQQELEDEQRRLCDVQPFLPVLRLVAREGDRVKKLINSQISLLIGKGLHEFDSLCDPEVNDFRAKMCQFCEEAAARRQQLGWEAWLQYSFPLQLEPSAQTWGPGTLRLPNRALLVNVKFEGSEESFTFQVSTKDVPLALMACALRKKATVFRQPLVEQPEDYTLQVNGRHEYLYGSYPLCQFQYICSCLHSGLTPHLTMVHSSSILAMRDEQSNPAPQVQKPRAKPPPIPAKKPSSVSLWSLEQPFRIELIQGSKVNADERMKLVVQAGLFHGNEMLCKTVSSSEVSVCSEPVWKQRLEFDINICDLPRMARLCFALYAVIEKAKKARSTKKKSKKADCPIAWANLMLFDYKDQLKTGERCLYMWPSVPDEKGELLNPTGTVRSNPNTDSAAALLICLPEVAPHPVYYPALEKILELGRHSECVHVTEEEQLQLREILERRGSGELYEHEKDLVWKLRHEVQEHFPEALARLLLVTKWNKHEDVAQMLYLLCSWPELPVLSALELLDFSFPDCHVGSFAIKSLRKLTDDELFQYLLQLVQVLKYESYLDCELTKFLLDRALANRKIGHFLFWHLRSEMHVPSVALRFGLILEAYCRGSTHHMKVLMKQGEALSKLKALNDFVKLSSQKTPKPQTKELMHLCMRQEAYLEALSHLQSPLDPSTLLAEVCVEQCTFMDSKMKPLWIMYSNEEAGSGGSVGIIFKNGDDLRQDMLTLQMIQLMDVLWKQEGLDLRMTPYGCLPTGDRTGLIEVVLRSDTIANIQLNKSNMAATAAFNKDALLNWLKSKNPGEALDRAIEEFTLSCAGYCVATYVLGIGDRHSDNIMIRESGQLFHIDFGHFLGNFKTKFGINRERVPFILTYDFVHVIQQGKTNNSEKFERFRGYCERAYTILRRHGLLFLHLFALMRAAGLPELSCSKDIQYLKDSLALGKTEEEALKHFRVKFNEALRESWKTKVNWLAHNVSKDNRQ

| SMILES | pIC50 |
| --- | --- |
| O=C(N1CCOCC1)N1CCN(Cc2cc3nc(-c4cccc5[nH]ccc45)nc(N4CCOCC4)c3s2)CC1 | ≥ 7.00 |
| C[C@@H]1CN(C)C[C@H](C)N1Cc1cc2nc(-c3cccc4[nH]ncc34)nc(N3CCOCC3)c2s1 | ≥ 7.00 |
| CNC(=O)C(C)(C)N1CCN(Cc2cc3nc(-c4cccc5[nH]ncc45)nc(N4CCOCC4)c3s2)CC1 | ≥ 7.00 |
| COCCN(CC(F)(F)F)C1CCN(Cc2cc3nc(-c4cccc5[nH]ncc45)nc(N4CCOCC4)c3s2)CC1 | ≥ 7.00 |
| OCC1CCN(Cc2cc3nc(-c4cccc5[nH]ncc45)nc(N4CCOCC4)c3s2)CC1 | ≥ 7.00 |
| CCC(CC)(COC)N1CCN(Cc2cc3nc(-c4cccc5[nH]ncc45)nc(N4CCOCC4)c3s2)CC1 | ≥ 7.00 |
| CNC(=O)[C@H]1CCCN(Cc2cc3nc(-c4cccc5[nH]ncc45)nc(N4CCOCC4)c3s2)C1 | ≥ 7.00 |
| COCCN(C)C1CCN(Cc2cc3nc(-c4cccc5[nH]ccc45)nc(N4CCOCC4)c3s2)CC1 | ≥ 7.00 |
| COCCCN(C)C1CCN(Cc2cc3nc(-c4cccc5[nH]ncc45)nc(N4CCOCC4)c3s2)CC1 | ≥ 7.00 |
| c1cc(-c2nc(N3CCOCC3)c3sc(CN4CCN(Cc5ccncc5)CC4)cc3n2)c2cn[nH]c2c1 | ≥ 7.00 |
| c1cc(-c2nc(N3CCOCC3)c3sc(CN4CCOCC4)cc3n2)c2cn[nH]c2c1 | ≥ 7.00 |
| C[C@@H]1CN(Cc2cc3nc(-c4cccc5[nH]ncc45)nc(N4CCOCC4)c3s2)C[C@H](C)N1Cc1nccs1 | ≥ 7.00 |
| c1ccc(N2CCN(Cc3cc4nc(-c5cccc6[nH]ncc56)nc(N5CCOCC5)c4s3)CC2)nc1 | ≥ 7.00 |
| CN1CCN(Cc2cc3nc(-c4cccc5[nH]ncc45)nc(N4CCOCC4)c3s2)CC1 | ≥ 7.00 |
| COCC(C)(C)N1CCN(Cc2cc3nc(-c4cccc5[nH]ncc45)nc(N4CCOCC4)c3s2)CC1 | ≥ 7.00 |
| CN(C)C(=O)N1CCN(Cc2cc3nc(-c4cccc5[nH]ncc45)nc(N4CCOCC4)c3s2)CC1 | ≥ 7.00 |
| COCCN(CC1CC1)C1CCN(Cc2cc3nc(-c4cccc5[nH]ncc45)nc(N4CCOCC4)c3s2)CC1 | ≥ 7.00 |
| CC(C)(O)CN1CCN(Cc2cc3nc(-c4cccc5[nH]ncc45)nc(N4CCOCC4)c3s2)CC1 | ≥ 7.00 |
| CN(C)CCCS(=O)(=O)N1CCN(Cc2cc3nc(-c4cccc5[nH]ncc45)nc(N4CCOCC4)c3s2)CC1 | ≥ 7.00 |
| CC(C)(O)C1CCN(Cc2cc3nc(-c4cccc5[nH]ncc45)nc(N4CCOCC4)c3s2)CC1 | ≥ 7.00 |
| COCCN1CCN(Cc2cc3nc(-c4cccc5[nH]ncc45)nc(N4CCOCC4)c3s2)CC1 | ≥ 7.00 |
| COCC(=O)N(C)C1CCN(Cc2cc3nc(-c4cccc5[nH]ncc45)nc(N4CCOCC4)c3s2)CC1 | ≥ 7.00 |

| SMILES | pIC50 |
| --- | --- |
| Cc1cc(CN2CCN(Cc3cc4nc(-c5cccc6[nH]ncc56)nc(N5CCOCC5)c4s3)CC2)no1 | ≥ 7.00 |
| CS(=O)(=O)N1CCN(Cc2cc3nc(-c4cccc5[nH]ccc45)nc(N4CCOCC4)c3s2)CC1 | ≥ 7.00 |
| OCC1CCCN(Cc2cc3nc(-c4cccc5[nH]ncc45)nc(N4CCOCC4)c3s2)C1 (stereo not given) | ≥ 7.00 |
| COCCN(C)C1CCCN(Cc2cc3nc(-c4cccc5[nH]ncc45)nc(N4CCOCC4)c3s2)C1 (stereo not given) | ≥ 7.00 |
| CN1CCN(Cc2cc3nc(-c4cccc5[nH]ccc45)nc(N4CCOCC4)c3s2)CC1 | ≥ 7.00 |
| CN1CCN(Cc2cc3nc(-c4cccc5nn(C)cc45)nc(N4CCOCC4)c3s2)CC1 | ≥ 7.00 |
| COCCCS(=O)(=O)C1CCN(Cc2cc3nc(-c4cccc5[nH]ncc45)nc(N4CCOCC4)c3s2)CC1 | ≥ 7.00 |
| CNC(=O)C1CCN(Cc2cc3nc(-c4cccc5[nH]ncc45)nc(N4CCOCC4)c3s2)CC1 | ≥ 7.00 |
| O=C1CN(Cc2cc3nc(-c4cccc5[nH]ncc45)nc(N4CCOCC4)c3s2)CCN1CCO | ≥ 7.00 |
| O=C(N1CCOCC1)N1CCN(Cc2cc3nc(-c4cccc5[nH]ncc45)nc(N4CCOCC4)c3s2)CC1 | ≥ 7.00 |
| COCCN(C)C1CCN(Cc2cc3nc(-c4cccc5[nH]ncc45)nc(N4CCOCC4)c3s2)CC1 | ≥ 7.00 |
| OCCC1CCN(Cc2cc3nc(-c4cccc5[nH]ncc45)nc(N4CCOCC4)c3s2)CC1 | ≥ 7.00 |
| OC1(Cc2ccccn2)CCN(Cc2cc3nc(-c4cccc5[nH]ncc45)nc(N4CCOCC4)c3s2)CC1 | ≥ 7.00 |
| CC(C)(CO)N1CCN(Cc2cc3nc(-c4cccc5[nH]ncc45)nc(N4CCOCC4)c3s2)CC1 | ≥ 7.00 |
| CN(C1CCN(Cc2cc3nc(-c4cccc5[nH]ncc45)nc(N4CCOCC4)c3s2)CC1)S(C)(=O)=O | ≥ 7.00 |
| CN1CCN(Cc2cc3nc(-c4cccc5c4cnn5C)nc(N4CCOCC4)c3s2)CC1 | ≥ 7.00 |
| CN1CCN(Cc2cc3nc(-c4cc(F)cc5[nH]ncc45)nc(N4CCOCC4)c3s2)CC1 | ≥ 7.00 |
| c1cc(-c2nc(N3CCOCC3)c3sc(CN4CCN(Cc5ncc[nH]5)CC4)cc3n2)c2cn[nH]c2c1 | ≥ 7.00 |
| c1cncc(CN2CCN(Cc3cc4nc(-c5cccc6[nH]ncc56)nc(N5CCOCC5)c4s3)CC2)c1 | ≥ 7.00 |
| c1cnc(N2CCN(Cc3cc4nc(-c5cccc6[nH]ncc56)nc(N5CCOCC5)c4s3)CC2)nc1 | ≥ 7.00 |
| c1cc(-c2nc(N3CCOCC3)c3sc(CN4CCC(N5CCOCC5)CC4)cc3n2)c2cc[nH]c2c1 | ≥ 7.00 |
| OCCN1CCN(Cc2cc3nc(-c4cccc5[nH]ncc45)nc(N4CCOCC4)c3s2)CC1 | ≥ 7.00 |

| SMILES | pIC50 |
| --- | --- |
| COCCN(C(C)C)C1CCN(Cc2cc3nc(-c4cccc5[nH]ncc45)nc(N4CCOCC4)c3s2)CC1 | ≥ 7.00 |
| COCCN(Cc1nccs1)C1CCN(Cc2cc3nc(-c4cccc5[nH]ncc45)nc(N4CCOCC4)c3s2)CC1 | ≥ 7.00 |
| CC(C)(C(=O)N1CCCC1)N1CCN(Cc2cc3nc(-c4cccc5[nH]ncc45)nc(N4CCOCC4)c3s2)CC1 | ≥ 7.00 |
| COCCN(C)C(=O)C1CCN(Cc2cc3nc(-c4cccc5[nH]ncc45)nc(N4CCOCC4)c3s2)CC1 | ≥ 7.00 |
| COCCC1CCN(Cc2cc3nc(-c4cccc5[nH]ncc45)nc(N4CCOCC4)c3s2)CC1 | ≥ 7.00 |
| c1cc(-c2nc(N3CCOCC3)c3sc(CN4CCN(Cc5cnc[nH]5)CC4)cc3n2)c2cn[nH]c2c1 | ≥ 7.00 |
| c1cc(-c2nc(N3CCOCC3)c3sc(CN4CCN(CC5CC5)CC4)cc3n2)c2cn[nH]c2c1 | ≥ 7.00 |
| OC(COc1ccccc1)CN1CCN(Cc2cc3nc(-c4cccc5[nH]ncc45)nc(N4CCOCC4)c3s2)CC1 (stereo not given) | ≥ 7.00 |
| c1cc(-c2nc(N3CCOCC3)c3sc(CN4CCN(Cc5cscn5)CC4)cc3n2)c2cn[nH]c2c1 | ≥ 7.00 |
| c1ccc(NC2CCN(Cc3cc4nc(-c5cccc6[nH]ncc56)nc(N5CCOCC5)c4s3)CC2)nc1 | ≥ 7.00 |
| CNC(=O)C1CCCN(Cc2cc3nc(-c4cccc5[nH]ncc45)nc(N4CCOCC4)c3s2)C1 (stereo not given) | ≥ 7.00 |
| COCC1CN(Cc2cc3nc(-c4cccc5[nH]ncc45)nc(N4CCOCC4)c3s2)CCN1S(C)(=O)=O (stereo not given) | ≥ 7.00 |
| CN(CCCS(C)(=O)=O)C1CCN(Cc2cc3nc(-c4cccc5[nH]ncc45)nc(N4CCOCC4)c3s2)CC1 | ≥ 7.00 |
| COCC1(N2CCN(Cc3cc4nc(-c5cccc6[nH]ncc56)nc(N5CCOCC5)c4s3)CC2)CC1 | ≥ 7.00 |
| COCCN(C)CC1CCN(Cc2cc3nc(-c4cccc5[nH]ncc45)nc(N4CCOCC4)c3s2)CC1 | ≥ 7.00 |
| c1ccc(CN2CCN(Cc3cc4nc(-c5cccc6[nH]ncc56)nc(N5CCOCC5)c4s3)CC2)nc1 | ≥ 7.00 |
| CN(C)CC1CCN(Cc2cc3nc(-c4cccc5[nH]ncc45)nc(N4CCOCC4)c3s2)CC1 | ≥ 7.00 |
| c1cc(-c2nc(N3CCOCC3)c3sc(CN4CCN(Cc5nccs5)CC4)cc3n2)c2cn[nH]c2c1 | ≥ 7.00 |
| COCCN(C)C(=O)N1CCN(Cc2cc3nc(-c4cccc5[nH]ncc45)nc(N4CCOCC4)c3s2)CC1 | ≥ 7.00 |
| CC(C)(C(N)=O)N1CCN(Cc2cc3nc(-c4cccc5[nH]ncc45)nc(N4CCOCC4)c3s2)CC1 | ≥ 7.00 |
| Cn1ccnc1CN1CCN(Cc2cc3nc(-c4cccc5[nH]ncc45)nc(N4CCOCC4)c3s2)CC1 | ≥ 7.00 |
